US4086139A, “Differential inactivation of amylase in amylase-protease mixtures” (GB Fermentation Industries Inc., priority 1976, dated 1978)
Values joined by “and” are separate entries in the source; they are usually repeats but may differ in a detail not shown here. Equal entries are not always repeated. Where two headings read alike, the source gives them in different places.

How the values were obtained:
Format in all cases: biochemical
[1] = target: protease (Bacillus subtilis, UniProt P04189); assay: Protease activity of B. subtilis Alkaline Protease composition after oxidizing agent treatment (Food Chemicals Codex method)
[2] = system: amylase; assay: Amylase activity of B. subtilis Alkaline Protease composition after oxidizing agent treatment (Food Chemicals Codex method); conditions: for Amylase % loss: 75 min
[3] = system: protease (both neutral and alkaline); assay: Protease retention in dry enzyme mixture from Bacillus subtilis culture filtrate, spray dried product; conditions: 0.35% NaOCl based on weight of dry mixture; pH 6.2-6.6; final spray dried material vs starting material
Procedure: (§1) Twenty five pounds of an unstandarized, dry enzyme mixture, obtained by drying the clarified culture filtrate from the aerobic fermentation of Bacillus subtilis in an aqueous nutrient culture medium containing assimilable C, N and mineral salts, and which was determined to contain neutral protease, alkaline protease and amylase, is admixed with one hundred pounds of water at 70°-85° F. and agitated to facilitate solution. The solution is adjusted to pH 6.2-6.6 by slow addition of 20% aqueous NaOH solution. Then, 1.67 pounds of Clorox® (containing 5.25% NaOCl) is slowly admixed with the foregoing enzyme solution to thereby result in the addition of 0.0877 pounds or 0.35% NaOCl based on the weight of the dry mixture.

[4] = target: T1, amylase (Sus scrofa, UniProt P00690); assay: Amylase activity of pancreatin after hypochlorite treatment
T1 construct: purchased Cudahy Co; host or cells: pancreas (pancreatin)
T1 sequence (P00690 16-511): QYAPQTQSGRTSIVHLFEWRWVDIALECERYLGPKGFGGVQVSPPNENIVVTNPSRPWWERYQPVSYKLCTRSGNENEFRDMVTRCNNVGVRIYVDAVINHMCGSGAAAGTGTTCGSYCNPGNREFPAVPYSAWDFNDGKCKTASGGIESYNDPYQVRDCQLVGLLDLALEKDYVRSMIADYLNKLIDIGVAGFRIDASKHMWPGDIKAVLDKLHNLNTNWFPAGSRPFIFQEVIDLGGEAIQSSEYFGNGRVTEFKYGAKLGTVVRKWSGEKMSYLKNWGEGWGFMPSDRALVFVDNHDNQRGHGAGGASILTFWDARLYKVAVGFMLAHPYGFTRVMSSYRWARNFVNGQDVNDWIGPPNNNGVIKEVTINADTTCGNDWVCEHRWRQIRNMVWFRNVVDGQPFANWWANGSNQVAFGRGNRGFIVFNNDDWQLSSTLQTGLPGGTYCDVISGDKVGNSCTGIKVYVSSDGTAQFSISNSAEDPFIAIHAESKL
Procedure: (§2) Pancreatin obtained from the Cudahy Co. was dissolved in isotonic salt solution (0.9% NaCl) to a concentration of 3.13 g. in 25 g. of solution. The solution pH was 6.5. Sodium hypochlorite solution (Clorox®) was added and the increments equalized by the addition of isotonic salt solution. The isotonic salt solution is used to avoid potency degradation of the solution upon standing. A similar lack of effect was noted when using an enzyme solution having a pH of 5.8 rather than 6.5. The enzyme mixture was treated for 11/4 hr. at room temperature and then assayed for protease and amylase activity. As in the prior Examples, the percent sodium hypochlorite is based on the solids content of the enzyme solution.
(§3) ^1, ^2 Amylase and protease activity were assayed by the same

[5] = system: amylase; assay: Amylase inactivation in dry enzyme mixture from Bacillus subtilis culture filtrate, spray dried product; conditions: 0.35% NaOCl based on weight of dry mixture, pH 6.2-6.6
Procedure: as §1

[6] = system: protease; assay: Protease activity of pancreatin after hypochlorite treatment; parameters: Protease Activity: unit not given beside the values; conditions: for Protease Activity: pH 6.5, 0% control 27,300; for Protease % loss: pH 6.5, 75 min
Procedure: as §2, §3

[7] = Table II, treated solution, 0.3% based on weight of enzyme composition, final pH 6.5
[8] = Table III, spray-dried product, 0.3% based on weight of enzyme composition

Sequence of protease (Bacillus subtilis, UniProt P04189) (P04189 107-381): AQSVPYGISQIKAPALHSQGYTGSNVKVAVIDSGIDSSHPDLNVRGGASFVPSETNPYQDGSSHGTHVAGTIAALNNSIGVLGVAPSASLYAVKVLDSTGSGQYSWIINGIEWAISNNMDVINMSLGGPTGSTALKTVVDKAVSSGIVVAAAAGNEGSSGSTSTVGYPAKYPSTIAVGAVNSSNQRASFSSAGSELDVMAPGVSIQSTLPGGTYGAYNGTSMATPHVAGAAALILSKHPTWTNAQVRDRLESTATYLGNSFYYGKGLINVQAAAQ

How did the “Protease Activity” value [1] turn out when OO [hydrogen peroxide, reference compound] was run?
Its value is 157,512.

And the “Protease Activity” value ([1]; pH 6.4)?
The value was 29,579.

And the “Amylase Activity” value [2]?
The value was 1250.

What about the “selective inactivation of amylase compared with hypochlorite (in words)” value [2] of the same compound?
Its value is “substantially less effective in selectively inactivating amylase”.

What about the “Amylase Activity” value ([2]; pH 6.4) of the same compound?
Its value is 236.

For [Na+].[O-][Cl+2]([O-])[O-] [sodium chlorate, reference compound], which “effect on protease activity” value [1] is on record?
Its value is “Neither of these salts had any effect”.

What about the “effect on amylase activity” value [2] of the same compound?
The value was “Neither of these salts had any effect”.

Which results are given for OCl [sodium hypochlorite]?
protease retained in the final product [3]: greater than 90%; Amylase Activity ([4]; 1.8% on solids content, pH 6.5, room temperature, 0% control 1075): 467; Amylase Activity ([4]; 3.6% on solids content, pH 6.5, 0% control 1075): 31; Amylase Activity ([4]; 7.2% on solids content, pH 6.5, 0% control 1075): 3; Amylase Activity ([4]; 10.8% on solids content, pH 6.5, 0% control 1075): 0; inhibition at 1.8 % ([4]; 1.25 h, 1.8% on solids content, pH 6.5, read-out: Amylase % loss): 57%; inhibition at 3.6 % ([4]; 1.25 h, 3.6% on solids content, pH 6.5, read-out: Amylase % loss): 97%; inhibition at 7.2 % ([4]; 1.25 h, 7.2% on solids content, pH 6.5, read-out: Amylase % loss): 100%; inhibition at 10.8 % ([4]; 1.25 h, 10.8% on solids content, pH 6.5, read-out: Amylase % loss): 100%; Protease Activity ([1]; 0.125% ion salt, pH 6.3, 0% control 25,900): 25,100; Protease Activity ([1]; 0.25% ion salt, pH 6.3, 0% control 25,900): 25,900; Protease Activity ([1]; 0.40% ion salt, pH 6.3, 0% control 25,900): 24,600; inhibition at 0.125 % ([1]; 1.25 h, 0.125% ion salt, pH 6.3, read-out: Protease % loss): 3%; inhibition at 0.25 % ([1]; 1.25 h, 0.25% ion salt, pH 6.3, read-out: Protease % loss): 0%; inhibition at 0.4 % ([1]; 1.25 h, 0.40% ion salt, pH 6.3, read-out: Protease % loss): 5%; Protease Activity [1, 7]: 27,365; Protease Activity [1, 8]: 147,650; amylase destruction (in words) [5]: immediately destroys the amylase; amylase inactivated ([5]; final spray dried material vs starting material): about 98%; Amylase Activity ([2]; 0.125% ion salt, pH 6.3, 0% control 583): 242; Amylase % loss ([2]; 0.125% ion salt, pH 6.3): 55%; Amylase Activity ([2]; 0.25% ion salt, pH 6.3, 0% control 583): 16; Amylase % loss ([2]; 0.25% ion salt, pH 6.3): 97%; Amylase Activity ([2]; 0.40% ion salt, pH 6.3, 0% control 583): 11; Amylase % loss ([2]; 0.40% ion salt, pH 6.3): 98%; Amylase Activity [2, 7]: 3; Amylase Activity [2, 8]: 15; Protease Activity ([6]; 1.8% on solids content): 28,400; Protease % loss ([6]; 1.8% on solids content): 0%; Protease Activity ([6]; 3.6% on solids content): 24,800; Protease % loss ([6]; 3.6% on solids content): 9%; Protease Activity ([6]; 7.2% on solids content): 19,100; Protease % loss ([6]; 7.2% on solids content): 30%; Protease Activity ([6]; 10.8% on solids content): 11,200; Protease % loss ([6]; 10.8% on solids content): 59%

With [O-][Cl+3]([O-])([O-])O [sodium perchlorate, reference compound] as the compound, how does the “effect on protease activity” value [1] read?
The value was “Neither of these salts had any effect”.

What about the “effect on amylase activity” value [2] of the same compound?
Its value is “Neither of these salts had any effect”.

With sodium chlorite as the compound, how does the Protease % loss ([1]; b. subtilis alkaline protease, pH 6.3, 75 min, 75 min) read?
Its Protease % loss is 0% and 1% and 8%.

What about the Protease Activity ([1]; pH 6.3) of the same compound?
The Protease Activity was 40,800 and 39,900 and 37,200.

What about the Amylase % loss ([2]; b. subtilis amylase, pH 6.3, 75 min) of the same compound?
Its Amylase % loss is 99%.
